These results are taken from patent publication US9862693B2, “Compounds and methods of treating cancer” (The Regents of the University of California, priority 2012, dated 2018).

Experiment [1] concerns MDA-MB-435. In words: MTS cell number assay (CellTiter 96), melanoma cells. The class given is cell-based. To be noted: 1 mM, 72 hours, MTS method. The method, then:
(§1) FIGS. 3A-3B. Metformin analogues inhibit survival of non-small cell lung cancer (NSCLC) (FIG. 3A) and melanoma cell lines (FIG. 3B). A549 (NSCLC) and MDA-MB-435 (melanoma) cells were cultured in medium containing 1% fetal bovine serum and increasing concentrations of metformin (MET) and analogues JD001-JD007 (0.1, 1 and 5 mM). After 3 days, MTS assay was performed. Survival is expressed as percentage of control defined at 100%.
(§2) Cells were incubated in the presence of vehicle, metformin or metformin analogues for 72 hours in their respective media. After treatment cell numbers were determined with the MTS method using the CellTiter 96 Aqueous Non-Radioactive Cell Proliferation Assay (Promega). Numbers express percentage of vehicle treated controls at 1 mM concentration metformin or metformin analogues (JD001-JD009). TNBC: Triple Negative Breast Cancer Cells, ER+BC: Estrogen receptor positive breast cancer.
A general note: Tetrazolium dyes change colour on reduction, which living cells bring about.

The test system of experiment [2] is HMEC. As to the kind of experiment: MTS cell number assay (CellTiter 96), normal cells. It is filed as cell-based. To be noted: Homo sapiens, 1 mM, 72 hours, MTS method, read-out: Biodata Normal HMEC, cell numbers as percentage of vehicle treated controls. Here is the method:
(§3) FIGS. 4A-4B. Effects of metformin and metformin analogues on normal cells. HMEC (FIG. 4A) and HUVEC (FIG. 4B) cells were plated in special media. After 24 hours, cells were treated with increasing concentrations of metformin and analogues JD001-JD009 (0.1, 1 and 5 mM). After 3 days, MTS assay was performed. Survival is expressed as percentage of vehicle treated control. Data represents at least two experiments.
(§4) The effects of compounds described herein (including embodiments) (e.g. metformin analogues) were determined on two types of normal nonmalignant human cells, human umbilical vein endothelial cells (HUVEC) and human mammary epithelial cells (HMEC). There were no significant biologic effects noted on exposure to the metformin analogues.
as §2

The subject of experiment [3] is HUVEC. In words: MTS cell number assay (CellTiter 96), normal cells. The class given is cell-based. The note with it: Homo sapiens, 1 mM, 72 hours, MTS method, read-out: Biodata Normal HUVEC, cell numbers as percentage of vehicle treated controls. The method, then: as §3, §4, §2
Experiment [4] has as its system MCF7. In words: MTS cell number assay (CellTiter 96), ER+ breast cancer cells. It is filed as cell-based. To be noted: Homo sapiens, 1 mM, 72 hours, MTS method, read-out: ER+ BC MCF7, cell numbers as percentage of vehicle treated controls. The method, then:
FIG. 1. Metformin analogues inhibit growth/survival of ER+ MCF7 breast cancer cells. MCF7 cells were cultured in medium containing different concentrations of metformin and analogues (0.1, 1 and 5 mM). After 3 days, the percentage of surviving cells relative to controls, defined as 100% survival, was determined by the MTS assay. Data represents three independent experiments.
Compounds described herein (e.g. metformin derivatives and/or analogues) were tested in human MCF-7 breast cancer cells, a standard ERalpha-positive model of breast malignancy (FIG. 1), and in four different cell lines classified as TNBC, including MDA-MB-231, HCC1937, HCC38 and HCC1806 (FIGS. 2A-2D). […] Experiments were also performed in: 1) a non-small cell lung cancer cell line that is known to be resistant to standard chemotherapy (A549); and 2) a melanoma-like cell model (MDA-MB-435). To find if analogues have effects on normal cells compounds were tested in two different types of cells, human umbilical vein endothelial cells (HUVEC) and human mammary epithelial cells (HMEC). The effects of metformin (MET) were compared with compounds JD001-JD009.
as §2

Experiment [5] concerns HCC1937. As to the kind of experiment: MTS cell number assay (CellTiter 96), TNBC cells. The class given is cell-based. The note with it: 1 mM, 72 hours, MTS method. Here is the method:
(§5) FIGS. 2A-2D. Metformin analogues inhibit growth/survival of triple negative breast cancer cells. MDA-MB-231 (FIG. 2A), HCC38 (FIG. 2B), HCC1937 (FIG. 2C) and HCC1806 (FIG. 2D) cells were cultured in medium containing 1% fetal bovine serum and increasing concentrations of metformin and analogues JD001-JD009 (0.1, 1 and 5 mM). After 3 days, MTS assay was performed. The percentage of surviving cells relative to controls, defined as 100% survival, was determined by the MTS assay.
as §2

Experiment [6] concerns MDA-MB-231. As to the kind of experiment: MTS cell number assay (CellTiter 96), TNBC cells. It is filed as cell-based. The note with it: Homo sapiens, 1 mM, 72 hours, MTS method, read-out: Biodata TNBC MDA-MB-231, cell numbers as percentage of vehicle treated controls. The method, then:
as §5, §2

Experiment [7] relates to MCF-7 cells. In words: Cell proliferation ELISA, BrdU colorimetric kit. It is filed as cell-based, human. The note with it: 0.1 mM and 1 mM, BrdU incorporation, 1% FBS, P<0.01. Here is the method: FIGS. 6A-6C. […] Proliferation was assessed using cell proliferation ELISA, BrdU colorimetric kit (Roche). Cells were counted using a hemocytometer and plated. After 24 hrs, cells were treated with metformin and analogs JD003 and JD004 at 0.1 mM and 1 mM doses using phenol-red free medium with 1% FBS. After 48 hr, BrDU labeling solution was added and incubated for 24 h. Proliferation was assessed using BrDU incorporation by ELISA during DNA synthesis in proliferating cells. Data shown as % control (mean±SE) (n=3 experiments).
We hypothesize that metformin analogs can be prepared with enhanced anticancer activity and minimal non-target toxicity. […] Human pancreatic cancer cells PANC-1, were grown in DMEM with 2 mM glutamine, 1 mM sodium pyruvate, 100 units/mL penicillin, 100 μg/mL streptomycin and 10% FBS at 37 C in a humidified atmosphere with 10% CO2. Then, effects of treatment with metformin or analog JD003 on cell proliferation in vitro were tested. […] In contrast, minimal antiproliferative effects are detected in nonmalignant human epithelial cells. […]
Cell proliferation screening assays were done using cell proliferation ELISA, BrdU colorimetric kit (Roche). Cells were counted using a hemocytometer and plated in 96-well plates. […] Cell proliferation were quantitated based on measures of BrDU incorporation (by ELISA) during DNA synthesis in proliferating cells. […] Results were expressed as mean±SE. […]

Experiment [8] has as its system A549. As to the kind of experiment: MTS cell number assay (CellTiter 96), NSCLC cells. The class given is cell-based. The note with it: Homo sapiens, 1 mM, 72 hours, MTS method, read-out: Biodata extra A549, cell numbers as percentage of vehicle treated controls. The method, then: as §1, §2
The subject of experiment [9] is PANC-1 cells. In words: Pancreatic cancer cell proliferation in vitro (cell counts). It is filed as cell-based, human. The note with it: 0.01, 0.1 and 1 mM, 72 hrs, 1% FBS, P<0.01, hydrochloride. The method, then:
FIG. 5. […] Cells were counted and plated. At 24 hrs after plating, cells were treated with metformin and JD003 at 0.01 mM, 0.1 mM, and 1 mM concentrations using medium with 1% FBS. After 72 hrs, cell proliferation was quantitated based on cell counts. Experiments were done 3-times, with results expressed as percent control (mean±SE).
We hypothesize that metformin analogs can be prepared with enhanced anticancer activity and minimal non-target toxicity. […] Human pancreatic cancer cells PANC-1, were grown in DMEM with 2 mM glutamine, 1 mM sodium pyruvate, 100 units/mL penicillin, 100 μg/mL streptomycin and 10% FBS at 37 C in a humidified atmosphere with 10% CO2. Then, effects of treatment with metformin or analog JD003 on cell proliferation in vitro were tested. […] To find if analogs may have deleterious effects on normal human cells, we compared the cellular activity of metformin with that of analogs JD003 and JD004 using a pair of human breast epithelial cells. These included human mammary epithelial cells (HMEC) and MCF-7 tumor cells (MCF-7). […] In contrast, minimal antiproliferative effects are detected in nonmalignant human epithelial cells.

Experiment [10] deals with triple-negative breast cancer cell lines. To be noted: literature refs (2,3); cited from earlier work.
Experiment [11] relates to MIAPaCa-2 and PANC-1 cells xenografted in nude mice. To be noted: reported; cited from earlier work.
For experiment [12], the system named is HCC1806. In words: MTS cell number assay (CellTiter 96), TNBC cells. The class given is cell-based. The note with it: 1 mM, 72 hours, MTS method. Here is the method:
as §5, §2

Experiment [13] relates to HCC38. As to the kind of experiment: MTS cell number assay (CellTiter 96), TNBC cells. It is filed as cell-based. To be noted: 1 mM, 72 hours, MTS method. The method, then: as §5, §2

Structures are written as SMILES. “Also recorded” adds a separate entry of the source. Where a name gives a salt, the structure may show the parent alone.

Regarding `CN1CCN(C(=N)NC(=N)N2CCN(C)CC2)CC1` [JD004, N-(Imino(4-methylpiperazin-1-yl)methyl)-4-methylpiperazine-1-carboximidamide hydro-chloride], in experiment [1], the “Biodata extra MDA-MB-435, cell numbers as percentage of vehicle treated controls” value is reported as 59.6 percentage of vehicle treated controls. Further, the viability at 1000 µM in [2] turned out to be 113%; in experiment [3], 89.1%; in experiment [4], 84.4%; in experiment [6], 89.2%; in [8] it was 74.3%. Further, in [5], the “Biodata TNBC HCC1937, cell numbers as percentage of vehicle treated controls” value was 64 percentage of vehicle treated controls. In addition, the “Blocking proliferation of MCF-7 cells compared with metformin” value in experiment [7] is on record as “more effective in blocking proliferation of MCF-7 cells; also recorded: enhanced antiproliferative activity in breast cancer cells as compared to metformin”.

As for `N=C(NC(=N)N1CCOCC1)N1CCOCC1` [JD003, N-(Imino(morpholino)methyl)morpholine-4-carboximidamide hydrochloride], the “Biodata extra MDA-MB-435, cell numbers as percentage of vehicle treated controls” value in experiment [1] is given as 50.4 percentage of vehicle treated controls. The viability at 1000 µM in experiment [2] is 107%; in [3], 86.7%; in experiment [4] it was 61.3%; in experiment [6], 93.2%; in [8], 98%. The “Inhibition of pancreatic cancer cell proliferation compared with metformin” value in experiment [9] is listed as “significantly greater inhibition of pancreatic cancer cell proliferation in vitro than parent compound metformin; also recorded: shows promise as a congener with more potent antitumor activity”. In [5], the “Biodata TNBC HCC1937, cell numbers as percentage of vehicle treated controls” value is 37.8 percentage of vehicle treated controls. The “Blocking proliferation of MCF-7 cells compared with metformin” value in [7] (hydrochloride) is listed as “more effective in blocking proliferation of MCF-7 cells; also recorded: enhanced antiproliferative activity in breast cancer cells as compared to metformin”.

`CN(C)C(=N)NC(=N)N` [Metformin (000), 1,1-dimethyl-biguanide hydrochloride, reference compound]: in [1], the “Biodata extra MDA-MB-435, cell numbers as percentage of vehicle treated controls” value is reported as 77.7 percentage of vehicle treated controls. In addition, the viability at 1000 µM came to 99.8% in experiment [2]; 83.9% in experiment [3]; 105% in [4]; 110% in experiment [6]; 72.2% in [8]. The “Antitumor activity against triple-negative breast cancer cell lines” value in experiment [10] was “only at high millimolar concentrations”. Besides, the “Growth of xenografted pancreatic cancer cells” value in [11] is reported as “significantly decrease growth”. The “Biodata TNBC HCC1806, cell numbers as percentage of vehicle treated controls” value in experiment [12] was 90.2 percentage of vehicle treated controls. Further, the “Biodata TNBC HCC38, cell numbers as percentage of vehicle treated controls” value in experiment [13] is listed as 92.5 percentage of vehicle treated controls. Moreover, the “Biodata TNBC HCC1937, cell numbers as percentage of vehicle treated controls” value in experiment [5] is reported as 92.9 percentage of vehicle treated controls.
